Results on eight molecules are retold here after PMC11323273, “A Multipurpose Metallophore and Its Copper Complexes with Diverse Catalytic Antioxidant Properties to Deal with Metal and Oxidative Stress Disorders: A Combined Experimental, Theoretical, and In Vitro Study” (Inorganic Chemistry, 2024).

Like-named read-outs stand apart in the source and are kept apart here. Bounds are passed on as bounds.

Data set [1] relates to Rat glioma C6 cells. The data set is described as follows: ROS mitigation in cells using DCFH-DA. It counts as cell-based. On the procedure:
Rat C6 glioma cells were grown in a 25 cm^2 culture flask containing Dulbecco’s modified Eagle medium (DMEM) supplemented with 10% (v/v) fetal bovine serum (FBS) at 37 °C in a 5% CO2 atmosphere.
To evaluate redox homeostasis, the level of ROS was assessed using the redox-sensitive dye 2′,7′-dichlorodihydrofluorescein diacetate (DCFH-DA). Rat C6 glioma cells were seeded at a density of 1 × 10^5 cells/well in a 96-well plate and cultured in high-glucose DMEM supplemented with 10% (v/v) FBS at 37 °C in a 5% CO2 atmosphere. The cells were pretreated with the compounds (25 μmol L^–1) and incubated for 24 h. The cells were washed and subjected to different oxidative stress models for 1 h, including (i) metallic stress via the addition of 25 μmol L^–1 CuCl, (ii) direct addition of a 25 μmol L^–1 hydrogen peroxide solution, (iii) superoxide anion (O2^•–) generated by the xanthine ([…])/xanthine oxidase (0.1 unit/mL) enzymatic system, and (iv) hydroxyl radical (^•OH) generated by the Fenton reaction using 0.4 μmol L^–1 CuCl and 4 μmol L^–1 H2O2. The concentrations refer to the final concentrations of each well. After exposure to the oxidative stress conditions, the cells were washed and incubated with DCFH-DA (10 μmol L^–1) for 45 min. The fluorescence was measured using the model M200 Tecan Infinite microplate reader with excitation and emission wavelengths of 450 and 535 nm, respectively.

Details of data set [2]: method as in PMID 4833643. The conditions noted are these: cited from earlier work.
For data set [3] the following is noted: cited from earlier work.
The nature of data set [4]: Potentiometric titration: protonation equilibria and species distribution. The data set is classed as physicochemical. The conditions noted are these: 70:30 ethanol/water solution, 25 °C, read-out: log K [H2L^+]/[HL][H^+] (pKa of the amine group). The method, then: The potentiometric studies were carried out with a Corning 350 digital pH meter fitted with blue-glass and Ag/AgCl reference electrodes calibrated to read −log[H^+] directly, designated as pH. Doubly distilled water in the presence of KMnO4 was used to prepare the solutions. For the ligands, the study was performed in a 70:30 ethanol/water solution, while the copper complexes were studied in water. The electrode was calibrated using the data obtained from the potentiometric titration of a known volume of a standard 0.100 mol L^–1 HCl solution with a standard 0.100 mol L^–1 KOH solution. The ionic strength of the HCl solution was maintained at 0.100 mol L^–1 upon the addition of KCl. […]
The titration curves were processed with BEST7,[86] which has as input file: titrant concentration, an initial value for the number of millimoles of the species under investigation, the volume increments of the titrant added, and the corresponding values of pH measured during titration. The program uses the least-squares method to minimize the differences between the calculated pH values and the experimental ones obtained during the titration, keeping fixed the values of the known equilibrium constants, such as those for the hydrolysis of the metal ion,[87] and varying the values of the constants to be determined, minimizing the error. […]

On the set-up of data set [5]: method as in doi:10.3390/pr10010132. The conditions noted are these: studied under the same conditions; read-out: RSA50; cited from earlier work.

For the molecule `[Cl][Cu]` [Cu(I), CuCl, reference compound], the “increase of cell fluorescence (ROS level) compared to the control” value in data set [1] (25 μmol L^–1 CuCl, 1 h) is on record as 3 fold.

`c1ccc(CNCc2ccccn2)nc1` [bis(2-pyridylmethyl)amine, reference compound]: in data set [2] (amine group), the pKa is given as 7.28.

As usually defined, the IC50 is the concentration at which inhibition is half-maximal. `NC(=O)CCN1CCCN(CCC(N)=O)CC1.[Cl-].[Cl-].[Cu+2]` [[Cu(BPAH)H2O]Cl2]: in data set [3], the IC50 was 0.129 ± 0.033 µM.

Consider `NC(=O)CCNCCNCCC(N)=O.[Cl-].[Cl-].[Cu+2]` [[Cu(BCEN)]Cl2·2H2O], for which the IC50 in data set [3] is 0.179 ± 0.017 µM.

For the molecule `NC(=O)CCN1CCN(CCC(N)=O)CC1.[Cl-].[Cl-].[Cu+2]` [[Cu(BPAP)H2O]Cl2], the IC50 in data set [3] is 0.168 ± 0.03 µM.

For the molecule `[Cl][Cu][Cl]` [CuCl2·2H2O], the IC50 in data set [3] is 0.91 ± 0.191 µM.

Take `CC(O)CNCc1ccccn1` (stereo not shown) [HL, 1-(pyridin-2-ylmethylamino)propan-2-ol]: the pKa in data set [4] is 8.11. Moreover, the “pKa of the pyridine group” value in data set [2] is below 3. For the same molecule, in data set [1] (pretreatment 25 μmol L^–1, 24 h, 0.4 μmol L^–1 CuCl and 4 μmol L^–1 H2O2 1 h), the “antioxidant effect in cells exposed to hydroxyl radical” value is recorded as “HL ∼ 1 > 2”. Also, the “redox status of cells exposed to Cu(I) (DCFH-DA fluorescence)” value in data set [1] (pretreatment 25 μmol L^–1, 24 h, 25 μmol L^–1 CuCl 1 h) is on record as “no change in the cell redox status”. Moreover, the “protection of cells against exogenous H2O2 (redox level)” value in data set [1] (pretreatment 25 μmol L^–1, 24 h, 25 μmol L^–1 H2O2 1 h) is given as “maintaining the redox state at the basal level”. Moreover, the “antioxidant protection of cells against superoxide radical anion” value in data set [1] (pretreatment 25 μmol L^–1, 24 h, xanthine/xanthine oxidase 1 h) was “maintaining the redox state at the basal level”.

For `[Cl][Cu][Cl].c1ccc(CNCc2ccccn2)nc1` [[Cu(bmpa)Cl2]], in data set [5], the EC50 is 1070 µM.
